Experimental data taken from patent US8846698B2, “Pyrrolo[2,3-d]pyrimidine tropomysin-related kinase inhibitors” (Pfizer Limited, priority 2011, dated 2014).
pIC50: −log10 of the molar value.

molecular target: TRKA (Homo sapiens (Human), UniProt P04629); assay: Isolated TRK enzyme assay (HTRF KinEASE-TK), TRKA; type: biochemical; conditions: read-out: Trka enzyme (IC50)
Sequence (P04629 441-796): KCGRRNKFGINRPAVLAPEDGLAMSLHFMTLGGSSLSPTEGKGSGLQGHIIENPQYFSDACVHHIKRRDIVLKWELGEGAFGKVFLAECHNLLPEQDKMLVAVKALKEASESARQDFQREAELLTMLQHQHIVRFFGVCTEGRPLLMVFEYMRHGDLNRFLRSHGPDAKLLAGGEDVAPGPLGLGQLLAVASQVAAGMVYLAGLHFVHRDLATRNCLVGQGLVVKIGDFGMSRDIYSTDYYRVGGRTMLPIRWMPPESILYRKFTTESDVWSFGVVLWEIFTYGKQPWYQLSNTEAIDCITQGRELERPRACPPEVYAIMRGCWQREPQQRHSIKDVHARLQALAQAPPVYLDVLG

Compared with `CC(C)c1cn(CC(=O)Nc2cncc(C(=O)c3cn(C(C)(C)CO)c4ncncc34)c2)nn1` [Example 227, N-(5-{[7-(2-hydroxy-1,1-dimethylethyl)-7H-pyrrolo[2,3-d]pyrimidin-5-yl]carbonyl}pyridin-3-yl)-2-(4-isopropyl-1H-1,2,3-triazol-1-yl)acetamide], `CC(C)c1cn(CC(=O)Nc2cncc(C(=O)c3cn(C(C)C)c4nc(N)ncc34)c2)nn1` [Example 248, N-{5-[(2-amino-7-isopropyl-7H-pyrrolo[2,3-d]pyrimidin-5-yl)carbonyl]pyridin-3-yl}-2-(4-isopropyl-1H-1,2,3-triazol-1-yl)acetamide] is 0.27 log units lower in pIC50: 7.90 for the first, 7.63 for the second. The first is the more potent here.

Going from `CC(C)(CO)n1cc(C(=O)c2cncc(NC(=O)Cc3ccc4cccnc4c3)c2)c2cncnc21` [Example 228, N-(5-{[7-(2-hydroxy-1,1-dimethylethyl)-7H-pyrrolo[2,3-d]pyrimidin-5-yl]carbonyl}pyridin-3-yl)-2-quinolin-7-ylacetamide] to `CC(CO)(CO)n1cc(C(=O)c2cncc(NC(=O)Cc3ccc4cccnc4c3)c2)c2cncnc21` [Example 233, N-[5-({7-[2-hydroxy-1-(hydroxymethyl)-1-methylethyl]-7H-pyrrolo[2,3-d]pyrimidin-5-yl}carbonyl)pyridin-3-yl]-2-quinolin-7-ylacetamide], the pIC50 falls from 7.83 to 7.02 (0.81 log units). The first is the more potent here.

Going from `CC(CO)(CO)n1cc(C(=O)c2cncc(NC(=O)Cc3ccc(C#N)cc3)c2)c2cncnc21` [Example 232, 2-(4-Cyanophenyl)-N-[5-({7-[2-hydroxy-1-(hydroxymethyl)-1-methylethyl]-7H-pyrrolo[2,3-d]pyrimidin-5-yl}carbonyl)pyridin-3-yl]acetamide] to `CC(CO)(CO)n1cc(C(=O)c2cncc(NC(=O)Cc3ccc(Cl)cc3)c2)c2cncnc21` [Example 235, 2-(4-chlorophenyl)-N-[5-({7-[2-hydroxy-1-(hydroxymethyl)-1-methylethyl]-7H-pyrrolo[2,3-d]pyrimidin-5-yl}carbonyl)pyridin-3-yl]acetamide], the pIC50 rises from 6.56 to 7.15 (0.59 log units).

First: Cc1cc(C(F)(F)F)nn1CC(=O)Nc1cncc(C(=O)c2cn(C(C)(CO)CO)c3ncncc23)c1 [Example 234, N-[5-({7-[2-hydroxy-1-(hydroxymethyl)-1-methylethyl]-7H-pyrrolo[2,3-d]pyrimidin-5-yl}carbonyl)pyridin-3-yl]-2-[5-methyl-3-(trifluoromethyl)-1H-pyrazol-1-yl]acetamide]
Second: CC(CO)(CO)n1cc(C(=O)c2cncc(NC(=O)Cn3ccc(C(F)(F)F)n3)c2)c2cncnc21 [Example 239, N-[5-({7-[2-hydroxy-1-(hydroxymethyl)-1-methylethyl]-7H-pyrrolo[2,3-d]pyrimidin-5-yl}carbonyl)pyridin-3-yl]-2-[3-(trifluoromethyl)-1H-pyrazol-1-yl]acetamide]
The pIC50 of the first is 0.58 log units lower: 7.07 for the first, 7.65 for the second.

Compared with `CC(CO)(CO)n1cc(C(=O)c2cncc(NC(=O)Cc3ccc(C(F)(F)F)cc3)c2)c2cncnc21` [Example 236, N-[5-({7-[2-hydroxy-1-(hydroxymethyl)-1-methylethyl]-7H-pyrrolo[2,3-d]pyrimidin-5-yl}carbonyl)pyridin-3-yl]-2-[4-(trifluoromethyl)phenyl]acetamide], `CC(CO)(CO)n1cc(C(=O)c2cncc(NC(=O)Cc3cccc(C(F)(F)F)c3)c2)c2cncnc21` [Example 238, N-[5-({7-[2-hydroxy-1-(hydroxymethyl)-1-methylethyl]-7H-pyrrolo[2,3-d]pyrimidin-5-yl}carbonyl)pyridin-3-yl]-2-[3-(trifluoromethyl)phenyl]acetamide] is 0.43 log units higher in pIC50: 7.60 for the first, 8.03 for the second.

Going from `CC(CO)(CO)n1cc(C(=O)c2cncc(NC(=O)Cc3ccc(Cl)cn3)c2)c2cncnc21` [Example 237, 2-(5-chloropyridin-2-yl)-N-[5-({7-[2-hydroxy-1-(hydroxymethyl)-1-methylethyl]-7H-pyrrolo[2,3-d]pyrimidin-5-yl}carbonyl)pyridin-3-yl]acetamide] to `CC(C)n1cc(C(=O)c2cncc(NC(=O)Cc3ccc(Cl)cn3)c2)c2cnc(N)nc21` [Example 242, N-{5-[(2-amino-7-isopropyl-7H-pyrrolo[2,3-d]pyrimidin-5-yl)carbonyl]pyridin-3-yl}-2-(5-chloropyridin-2-yl)acetamide], the pIC50 rises from 7.13 to 8.06 (0.93 log units).

Compared with `CC(C)n1cc(C(=O)c2cncc(NC(=O)Cn3cc(C(F)(F)F)nn3)c2)c2cnc(N)nc21` [Example 240, N-{5-[(2-amino-7-isopropyl-7H-pyrrolo[2,3-d]pyrimidin-5-yl)carbonyl]pyridin-3-yl}-2-[4-(trifluoromethyl)-1H-1,2,3-triazol-1-yl]acetamide], `CC(C)n1cc(C(=O)c2cncc(NC(=O)Cn3cc(C4CC4)nn3)c2)c2cnc(N)nc21` [Example 249, N-{5-[(2-amino-7-isopropyl-7H-pyrrolo[2,3-d]pyrimidin-5-yl)carbonyl]pyridin-3-yl}-2-(4-cyclopropyl-1H-1,2,3-triazol-1-yl)acetamide] is 0.27 log units lower in pIC50: 7.72 for the first, 7.45 for the second. The first is the more potent here.

Going from `CC(C)n1cc(C(=O)c2cncc(NC(=O)Cc3ccc(C#N)cc3)c2)c2cnc(N)nc21` [Example 241, N-{5-[(2-amino-7-isopropyl-7H-pyrrolo[2,3-d]pyrimidin-5-yl)carbonyl]pyridin-3-yl}-2-(4-cyanophenyl)acetamide] to `CC(C)n1cc(C(=O)c2cncc(NC(=O)Cc3ccc(Cl)cc3)c2)c2cnc(N)nc21` [Example 250, N-{5-[(2-amino-7-isopropyl-7H-pyrrolo[2,3-d]pyrimidin-5-yl)carbonyl]pyridin-3-yl}-2-(4-chlorophenyl)acetamide], the pIC50 rises from 7.34 to 8.46 (1.12 log units). The second is the more potent here.

`CC(C)n1cc(C(=O)c2cncc(NC(=O)Cc3ccc(F)cn3)c2)c2cnc(N)nc21` [Example 243, N-{5-[(2-amino-7-isopropyl-7H-pyrrolo[2,3-d]pyrimidin-5-yl)carbonyl]pyridin-3-yl}-2-(5-fluoropyridin-2-yl)acetamide] and `CC(C)n1cc(C(=O)c2cncc(NC(=O)Cc3ccc4ocnc4c3)c2)c2cnc(N)nc21` [Example 246, N-{5-[(2-amino-7-isopropyl-7H-pyrrolo[2,3-d]pyrimidin-5-yl)carbonyl]pyridin-3-yl}-2-(1,3-benzoxazol-5-yl)acetamide] are within 0.2 log units of each other in pIC50: 7.42 for the first, 7.45 for the second.

`CC(C)n1cc(C(=O)c2cncc(NC(=O)Cc3ccc(C(F)(F)F)cc3)c2)c2cnc(N)nc21` [Example 244, N-{5-[(2-amino-7-isopropyl-7H-pyrrolo[2,3-d]pyrimidin-5-yl)carbonyl]pyridin-3-yl}-2-[4-(trifluoromethyl)phenyl]acetamide] and `CC(C)n1cc(C(=O)c2cncc(NC(=O)Cc3cccc(C(F)(F)F)c3)c2)c2cnc(N)nc21` [Example 245, N-{5-[(2-amino-7-isopropyl-7H-pyrrolo[2,3-d]pyrimidin-5-yl)carbonyl]pyridin-3-yl}-2-[3-(trifluoromethyl)phenyl]acetamide] are the same in pIC50: 8.33 for the first, 8.33 for the second.

First: CC(C)n1cc(C(=O)c2cncc(NC(=O)Cc3cccc(S(C)(=O)=O)c3)c2)c2cnc(N)nc21 [Example 247, N-{5-[(2-amino-7-isopropyl-7H-pyrrolo[2,3-d]pyrimidin-5-yl)carbonyl]pyridin-3-yl}-2-[3-(methylsulfonyl)phenyl]acetamide]
Second: CC(C)n1ncc(CC(=O)Nc2cncc(C(=O)c3cn(C(C)C)c4nc(N)ncc34)c2)c1C(F)(F)F [Example 251, N-{5-[(2-amino-7-isopropyl-7H-pyrrolo[2,3-d]pyrimidin-5-yl)carbonyl]pyridin-3-yl}-2-[1-isopropyl-5-(trifluoromethyl)-1H-pyrazol-4-yl]acetamide]
The pIC50 of the first is 0.33 log units lower: 7.15 for the first, 7.48 for the second. The second is the more potent here.
